These results are taken from ChEMBL document CHEMBL1201862, “PubChem BioAssay data set” (2004).

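The compound was tested at five concentrations on cells cultured in 96-well plates, with a 48-hour exposure period. GI50 = concentration required for 50% inhibition of growth.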 The source made the active and inactive calls. No stated cut-off is given here; in the data, active = GI50 up to about 1.1 µM and inactive = higher. Bounds are passed on as bounds.

Holding throughout (experiment): NCI anticancer screen, dose series, 48 h
The test system of test [1] is A549.
The subject of test [2] is CCRF-CEM.
The test system of test [3] is COLO 205.
The subject of test [4] is HCC 2998.
Test [5] has as its system HCT-116.
Test [6] relates to HCT-15.
The test system of test [7] is HOP-62.
Test [8] deals with HOP-92.
The subject of test [9] is K562.
For test [10], the system named is KM-20L2.
The subject of test [11] is MOLT-4.
The subject of test [12] is Malme-3M.
Test [13] concerns NCI-H23.
Test [14] concerns RPMI-8226.
Test [15] has as its system RXF 393.
The subject of test [16] is SK-MEL-28.
In test [17] the test system is SK-MEL-2.
Test [18] relates to SNB-75.
For test [19], the system named is TK-10.
Test [20] deals with UACC-62.

Take `CC(OC(C)(C)C)[C@H](NC(=O)OCC(Cl)(Cl)Cl)C(=O)O` (some centres not stated): the GI50 in test [1] is > 100 µM (inactive); in test [2], > 100 µM (inactive); in test [3] it was > 100 µM (inactive); in [4], > 100 µM (inactive); in [5], > 100 µM (inactive); in test [6], more than 100 µM. The GI50 in test [7], in test [8], in test [9], in test [10], in test [11] and in [12] was > 100 µM (inactive) throughout. In addition, the GI50 in test [13] was > 100 µM (inactive); in test [14], > 100 µM (inactive); in test [15] it was 87.9 µM (inactive); in [16], > 100 µM (inactive); in test [17] it was > 100 µM (inactive); in [18] it was > 100 µM (inactive). The GI50 in test [19] and in test [20] was > 100 µM (inactive) each time.

As to `O=C1ON(Cc2ccccc2)C(c2ccccc2)N1c1ccccc1` (configuration not stated), the GI50 in [1] was > 100 µM (inactive); in test [2] it was > 100 µM (inactive); in [3], > 100 µM (inactive); in test [4], > 100 µM (inactive); in [5] it was > 100 µM (inactive); in test [6], more than 100 µM. Besides, the GI50 in [7] is > 100 µM (inactive); in test [8] it was > 100 µM (inactive); in test [9], > 95.9 µM (inactive); in [10] it was > 100 µM (inactive); in test [11], 71.6 µM (inactive); in test [12], > 100 µM (inactive). The GI50 in test [13] is > 100 µM (inactive); in [14], > 100 µM (inactive); in [15] it was > 100 µM (inactive); in test [16] it was > 100 µM (inactive); in test [17], > 100 µM (inactive); in test [18], 62.7 µM (inactive). The GI50 in [20] is 98.9 µM (inactive).

Consider `COC(=O)c1ccc(/N=N/N(C)COc2ccc([N+](=O)[O-])cc2)cc1`, for which the GI50 in test [1] was > 100 µM (inactive); in test [2], 58.2 µM (inactive); in test [3], > 57.3 µM (inactive); in test [4], > 74.5 µM (inactive); in test [5], > 100 µM (inactive); in test [6], more than 90.8 µM. Also, the GI50 was > 100 µM (inactive) in test [7]; 65.3 µM (inactive) in [8]; 50.7 µM (inactive) in test [9]; 54.3 µM (inactive) in test [10]; > 100 µM (inactive) in test [11]; > 100 µM (inactive) in [12]. The GI50 in test [13] is > 100 µM (inactive); in test [14], 38.7 µM (inactive); in test [15], > 85.3 µM (inactive); in test [16] it was > 100 µM (inactive); in [17], > 80.9 µM (inactive); in [18], 54.6 µM (inactive). In addition, the GI50 in test [20] is 33.3 µM (inactive).

With `O=NN1C(c2ccccc2)CCCC1c1ccccc1` (configuration not stated), the GI50 was > 71 µM (inactive) in test [1]; 52.1 µM (inactive) in test [2]; 50.8 µM (inactive) in test [3]; 80.4 µM (inactive) in test [4]; 47.9 µM (inactive) in test [5]; 62.4 µM in [6]. Besides, the GI50 in [7] was > 100 µM (inactive); in [8], 36.4 µM (inactive); in test [9], 35.9 µM (inactive); in [10], > 100 µM (inactive); in test [11] it was 27.9 µM (inactive); in test [12], > 65.5 µM (inactive). In addition, the GI50 in test [13] was 42 µM (inactive); in test [14], 21.7 µM (inactive); in test [15] it was 44.5 µM (inactive); in [16] it was > 100 µM (inactive); in test [17] it was 45.9 µM (inactive); in test [18], 28.3 µM (inactive). Moreover, the GI50 in test [20] was > 94.8 µM (inactive).

With `C=CCN1/C(=C(\C#N)c2nc3ccccc3[nH]2)Sc2c1nc[nH]c2=O`, the GI50 in [1] was > 100 µM (inactive); in test [2], > 100 µM (inactive); in test [3], > 100 µM (inactive); in [4] it was > 100 µM (inactive); in [5], > 100 µM (inactive); in test [6] it was more than 100 µM. In addition, the GI50 in test [7], in test [8], in [9], in [10], in test [11] and in test [12] was > 100 µM (inactive) throughout. The GI50 is > 100 µM (inactive) in test [13]; > 100 µM (inactive) in test [14]; 6.68 µM (inactive) in test [15]; > 100 µM (inactive) in [16]; > 100 µM (inactive) in test [17]; 31.4 µM (inactive) in test [18]. Besides, the GI50 in [19] and in test [20] was > 100 µM (inactive) in each case.

`COc1cc(/C=C/C(=O)C(C)(C)C)cc(OC)c1OC`: the GI50 was 32.2 µM (inactive) in test [1]; 33.2 µM (inactive) in test [2]; 40 µM (inactive) in test [3]; 48.2 µM (inactive) in test [4]; 29.9 µM (inactive) in test [5]; 61.8 µM in [6]. Further, the GI50 was > 100 µM (inactive) in [7]; 41.1 µM (inactive) in [8]; 37.6 µM (inactive) in test [9]; 51.1 µM (inactive) in test [10]; 32.8 µM (inactive) in test [11]; 71.8 µM (inactive) in test [12]. The GI50 in [13] is 29.9 µM (inactive); in test [14], 34.3 µM (inactive); in test [15], 28.4 µM (inactive); in test [16] it was 63 µM (inactive); in test [17], 32.7 µM (inactive); in [18], 25.9 µM (inactive). Also, the values for the GI50 in [19] and in test [20] were > 100 µM (inactive) and 36.9 µM (inactive), respectively.

In the case of `C[C@]12CCC(=O)C(O)=C1CC[C@@H]1[C@@H]2CC[C@]2(C)C(=O)CC[C@@H]12` [FORMESTANE], the GI50 in test [1] is > 100 µM (inactive); in [2], > 100 µM (inactive); in [3], > 100 µM (inactive); in test [4], > 100 µM (inactive); in test [5] it was > 93.1 µM (inactive); in test [6], more than 100 µM. In addition, the GI50 is > 100 µM (inactive) in test [7]; > 81.8 µM (inactive) in test [8]; > 89.9 µM (inactive) in test [9]; > 100 µM (inactive) in test [10]; > 75.9 µM (inactive) in test [11]; > 100 µM (inactive) in test [12]. In addition, the GI50 in test [13], in test [14], in test [15], in test [16], in [17] and in test [18] was > 100 µM (inactive) in each case. The GI50 in [19] and in test [20] was > 100 µM (inactive) throughout.

Regarding `CN1NC(c2ccccc2)=C(C#N)C(=O)CC1c1ccc(Br)cc1` (configuration not stated), the GI50 is 32.2 µM (inactive) in test [1]; 34.5 µM (inactive) in test [4]; 36.8 µM (inactive) in [5]; 24.3 µM in test [6]; 21.4 µM (inactive) in test [7]; 35.2 µM (inactive) in test [8]. In addition, the GI50 in [10] is > 10 µM (inactive); in [12] it was 23.3 µM (inactive); in test [13], 56.4 µM (inactive); in [14] it was 37.8 µM (inactive); in [15], 36.6 µM (inactive); in test [16] it was 48 µM (inactive). The results for the GI50 in test [17], in test [18] and in test [19] were 28.3 µM (inactive), 16.6 µM (inactive) and 75.3 µM (inactive), respectively.
